NCC(CC(=O)O)c1ccc(Cl)cc1 (configuration not stated)
solubility (mole fraction)
Details	273.15 K	278.15 K	283.15 K	288.15 K	293.15 K	298.15 K	303.15 K	308.15 K	313.15 K	318.15 K
in 1,4-dioxane	–	–	–	0.000519	0.000568	0.000632	0.000704	0.000788	0.000888	0.000996
in 2-butanone	0.000439	0.000475	0.000522	0.000579	0.000639	0.000703	0.000792	0.0009	0.00101	0.00112
in DMAc	0.0934	0.0945	0.0957	0.0969	0.0982	0.0995	0.101	0.102	0.104	0.105
in DMF	0.0998	0.101	0.102	0.104	0.106	0.108	0.11	0.112	0.115	0.117
in acetone	0.000228	0.000236	0.000246	0.000258	0.000273	0.000289	0.000305	0.000322	0.00034	0.000358
in ethanol	1.95e-05	2.23e-05	2.58e-05	3e-05	3.4e-05	3.85e-05	4.33e-05	4.86e-05	5.39e-05	5.86e-05
in ethyl acetate	0.00412	0.00419	0.00427	0.00436	0.00446	0.00456	0.00467	0.00476	0.00488	0.00499
in isopropanol	3.16e-05	3.67e-05	4.17e-05	4.74e-05	5.35e-05	5.99e-05	6.67e-05	7.41e-05	8.21e-05	9.04e-05
in methanol	0.000109	0.000116	0.000124	0.000133	0.000143	0.000153	0.000162	0.000173	0.000186	0.000198
in n-butanol	5.73e-05	6.12e-05	6.61e-05	7.11e-05	7.68e-05	8.34e-05	9.06e-05	9.72e-05	0.000104	0.000113
in n-propanol	2.57e-05	3.01e-05	3.47e-05	4.03e-05	4.61e-05	5.35e-05	6.1e-05	6.85e-05	7.63e-05	8.77e-05
in toluene	0.0054	0.00569	0.00601	0.00639	0.00673	0.00709	0.00749	0.0079	0.00831	0.00866

Reference: BigSolDB 2.1
